Measured values as given in patent publication US11613746B2, “Methods for developing virus protein specific capture agents, capture agents, and methods of using the capture agents” (priority 2019, dated 2023).
Read-outs that look alike come from different tables or passages of the source.

Biological target: T1, CHIKV E2 protein (Chikungunya virus, UniProt Q8JUX5)
T1 construct: incubated with varying concentrations of biotin conjugated CHIKV E2 protein
T1 sequence (Q8JUX5 326-748 limits assumed): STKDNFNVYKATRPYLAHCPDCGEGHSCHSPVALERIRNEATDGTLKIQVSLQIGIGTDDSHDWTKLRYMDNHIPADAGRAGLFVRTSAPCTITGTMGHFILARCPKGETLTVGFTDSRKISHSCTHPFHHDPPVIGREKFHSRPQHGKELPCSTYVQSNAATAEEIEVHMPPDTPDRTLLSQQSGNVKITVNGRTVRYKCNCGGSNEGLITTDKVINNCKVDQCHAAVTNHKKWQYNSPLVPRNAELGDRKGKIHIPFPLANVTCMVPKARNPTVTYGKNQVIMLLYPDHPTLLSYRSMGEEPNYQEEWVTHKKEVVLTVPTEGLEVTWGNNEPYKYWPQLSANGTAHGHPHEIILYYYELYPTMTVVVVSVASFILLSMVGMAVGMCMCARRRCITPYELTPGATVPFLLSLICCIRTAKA
Assay: LUMINEX binding assay (sandwich-type) of bead-attached capture agents with biotin conjugated CHIKV E2 protein
Conditions: for EC50: FIG. 9
Method: Referring to FIG. 4, the binding performance of each capture agent is determined using a LUMINEX® binding assay, which is essentially the same as a sandwich-type ELISA, where the peptides are attached to a bead as a one-arm polyethylene glycol (PEG) or three-arm PEG construct. By allowing these beads to interact with varying concentrations of the CHIKV E2 protein, one can determine and compare the binding performance of each capture agent construct. A smaller value of the variable on the horizontal axis at the inflection point of a given plot for a corresponding capture agent indicates stronger binding for the corresponding capture agent with respect to the target protein or target molecule.
Referring to FIG. 4, the assay for an illustrative example was performed on a LUMINEX® 200 instrument. LUMINEX®'s xMAP technology drives multiplexed assay capabilities by combining fluidics, optics, and digital signal processing with microsphere technology. The LUMINEX® 200 is capable of testing up to 100 analytes simultaneously from a single sample and is the leading multiplex immunoassay technology. In general, the color-coded microspheres are the substrate on which the solution phase assays are performed, where a specific microsphere color corresponds to an individual receptor attached to the microsphere surface.
In one illustrative example, 6 separate microsphere regions were first functionalized with a single arm polyethlyglycine (PEG) azide molecule. Each microsphere region was then reacted with an individual, alkyne-functionalized cyclic peptide (with the sequence WIYYI, IYLRY, YWHWS, FWQIL), or an equal combination of all sequences (noted as “polyclonal”). As a control, polyclonal Anti-E2 antibody was attached to a bead region for performance comparison against the peptide constructs. In an analogous experiment, the exact same process was repeated, except the single arm PEG azide molecule was switched to a 3-arm PEG azide molecule.
The details of some of the synthesis and experimental techniques useful in the embodiments herein can be found in United States Patent Application Publication No. US 2017/0349754 A1, by Matthew B. Coppock, published Dec. 7, 2017, M. B. Coppock et al., “A novel discovery, maturation, and assay integration approach for the development of ruggedized multi-valent capture receptors exemplified against the chikungunya virus E2 protein,” Sensing and Bio-Sensing Research 22 (2019) 100248, and M. B. Coppock, D. N. Stratis-Cullum, “A universal method for the functionalization of dyed magnetic microspheres with peptides,” Methods 158 (2019) 12-16, all of which, including their supplemental parts and appendices, are incorporated by reference herein in their entirety. […]

Substance	binding activity remaining after heating (heated at 90° C. for 1 hr, result in words)	binding performance compared to commercially available antibody raised against E2 (multi-arm constructs, result in words)	EC50 (heated at 90° C. for 1 hr before assay, read-out: EC50 (binding activity for CHIKV E2) after heating) [nM]	EC50 (unheated control, LUMINEX assay, read-out: EC50 (binding activity for CHIKV E2) before heating) [nM]
WIYYI	no loss in binding activity	outperform the antibody	–	–
WIYYI (chains of the parent or of the whole protein)	–	–	0.245 ± 0.005	0.232 ± 0.006
